Results: the NIST ThermoML archive (doi:10.1016/j.jct.2005.03.023)
Numbers after ± are expanded uncertainties.

Experiment: mn = molality of the nth substance listed, in mol/kg
Conditions: 101.3 kPa, Liquid

SMILES: O=C[C@H](O)[C@@H](O)[C@H](O)CO [D-xylose] + O
- mass density (278.15 K, m1 = 0.25): 1013.81 ± 0.39 kg/m3
- mass density (278.15 K, m1 = 0.4): 1021.78 ± 0.42 kg/m3
- mass density (278.15 K, m1 = 0.55): 1029.49 ± 0.45 kg/m3
- mass density (278.15 K, m1 = 0.7): 1036.97 ± 0.48 kg/m3
- mass density (278.15 K, m1 = 0.85): 1044.24 ± 0.51 kg/m3
- mass density (278.15 K, m1 = 1): 1051.27 ± 0.54 kg/m3
- mass density (288.15 K, m1 = 0.25): 1012.76 ± 0.38 kg/m3
- mass density (288.15 K, m1 = 0.4): 1020.47 ± 0.41 kg/m3
- mass density (288.15 K, m1 = 0.55): 1028.02 ± 0.45 kg/m3
- mass density (288.15 K, m1 = 0.7): 1035.37 ± 0.48 kg/m3
- mass density (288.15 K, m1 = 0.85): 1042.46 ± 0.51 kg/m3
- mass density (288.15 K, m1 = 1): 1049.35 ± 0.53 kg/m3
- mass density (298.15 K, m1 = 0.25): 1010.39 ± 0.37 kg/m3
- mass density (298.15 K, m1 = 0.4): 1018.06 ± 0.4 kg/m3
- mass density (298.15 K, m1 = 0.55): 1025.49 ± 0.43 kg/m3
- mass density (298.15 K, m1 = 0.7): 1032.72 ± 0.47 kg/m3
- mass density (298.15 K, m1 = 0.85): 1039.74 ± 0.49 kg/m3
- mass density (298.15 K, m1 = 1): 1046.52 ± 0.52 kg/m3
- mass density (308.15 K, m1 = 0.25): 1007.15 ± 0.36 kg/m3
- mass density (308.15 K, m1 = 0.4): 1014.77 ± 0.39 kg/m3
- mass density (308.15 K, m1 = 0.55): 1022.12 ± 0.42 kg/m3
- mass density (308.15 K, m1 = 0.7): 1029.24 ± 0.45 kg/m3
- mass density (308.15 K, m1 = 0.85): 1036.18 ± 0.48 kg/m3
- mass density (308.15 K, m1 = 1): 1042.87 ± 0.51 kg/m3
- mass density (318.15 K, m1 = 0.25): 1003.29 ± 0.34 kg/m3
- mass density (318.15 K, m1 = 0.4): 1010.79 ± 0.38 kg/m3
- mass density (318.15 K, m1 = 0.55): 1018.05 ± 0.41 kg/m3
- mass density (318.15 K, m1 = 0.7): 1025.13 ± 0.44 kg/m3
- mass density (318.15 K, m1 = 0.85): 1031.95 ± 0.46 kg/m3
- mass density (318.15 K, m1 = 1): 1038.63 ± 0.49 kg/m3
